Test [1] addresses T1, SERT (Rattus norvegicus, UniProt P31652). The test is described as follows: [3H]5-HT release assay. Particulars: for EMAX substrate-induced [3H]5-HT release, CONTROL: substrate alone (control), 100% = release by 100 μM tyramine, ±SD; for Emax [3H]5-HT release, 15 μM EG-1-149 / Emax [3H]5-HT release, NO EG-1-149: ±SD (n=6).
For test [2], the target named is T1, SERT. Briefly: [3H]5-HT uptake inhibition assay. In kind it is biochemical.
For the next test, the system named is DAT. The following applies: read-out: IC50 reuptake inhibition, DAT; ref Greiner et al., 2003; cited from earlier work.
Test [3] addresses T1, SERT. The test is described as follows: biochemical.
Where [4] appears, read: 1 μM test compound, substrate MDMA.

Values joined by “and” are separate entries in the source; they are usually repeats but may differ in a detail not shown here. Identical values can stand only once. Counter-ions that a name gives are not always drawn.

T1 sequence (P31652 whole entry): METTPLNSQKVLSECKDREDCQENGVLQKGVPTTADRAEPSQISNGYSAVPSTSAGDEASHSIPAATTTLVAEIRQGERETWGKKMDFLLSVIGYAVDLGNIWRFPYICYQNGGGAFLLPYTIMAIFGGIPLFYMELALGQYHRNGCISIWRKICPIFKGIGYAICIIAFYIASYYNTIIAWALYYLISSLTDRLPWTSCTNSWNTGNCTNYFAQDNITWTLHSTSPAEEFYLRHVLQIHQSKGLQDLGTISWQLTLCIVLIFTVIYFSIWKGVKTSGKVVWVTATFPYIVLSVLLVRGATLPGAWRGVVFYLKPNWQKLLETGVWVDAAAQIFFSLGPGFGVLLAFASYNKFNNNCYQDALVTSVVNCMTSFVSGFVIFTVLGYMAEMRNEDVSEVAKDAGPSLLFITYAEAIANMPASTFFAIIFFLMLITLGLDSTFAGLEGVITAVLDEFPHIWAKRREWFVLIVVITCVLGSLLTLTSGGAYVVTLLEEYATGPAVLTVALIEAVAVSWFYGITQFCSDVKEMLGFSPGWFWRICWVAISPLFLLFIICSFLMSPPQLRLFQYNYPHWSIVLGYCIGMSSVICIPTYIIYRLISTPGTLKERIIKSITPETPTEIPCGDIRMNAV

In the case of `NCCc1c[nH]c2ccc(O)cc12` [5-HT], on SERT [1], the “EMAX substrate-induced [3H]5-HT release, CONTROL” value (shortened to “EMAX substrate-induced”) came out at 85±1%.

Turning to `Cc1cc(NC(=O)Nc2ccc3c(ccn3C)c2)sn1` [SB204741, N-(1-Methyl-1H-indol-5-yl)-N′-(3-methylisothiazol-5-yl)urea], the IC50 (as a rule, the concentration at which inhibition is half-maximal) against SERT [2] was 38 µM. Further, at SERT [1] (setting [4]), the “effect on EMAX of MDMA-induced [3H]5-HT release” value is reported as “without altering the EMAX values” and the “rightward shift of the MDMA dose-response curve ([3H]5-HT release)” value is reported as 3–4 fold.

Turning to `CNC(C)Cc1ccc2c(c1)OCO2` (racemic) [(±)-MDMA], on SERT [1], a half-maximal effect (EC50) was put at 0.088 ± 0.01 µM. On SERT [1] (read-out: EMAX substrate-induced [3H]5-HT release, CONTROL), the Emax (in general, the size of the effect at its maximum, as opposed to the concentration needed) was 105%.

`Brc1ccc(CN2CCC(CCOC(c3ccccc3)c3ccccc3)CC2)cc1` [EG-1-149, 4-(2-(Benzhydryloxy)ethyl)-1-(4-bromobenzyl)piperidine oxalate]: the IC50 on SERT [2] is 1.76 µM; in the test on DAT it was 0.0051 ± 0.0004 µM. In addition, on SERT [3], the Ki (in general, the dissociation constant of the complex between target and ligand, obtained from inhibition or displacement) is 0.713 µM and 1.18 µM and 4.82 µM and 2.9 µM and 1.77 µM.

As to `Clc1cccc(N2CCNCC2)c1` [mCPP, meta-chlorophenylpiperazine], the “EMAX substrate-induced” value on SERT [1] is 94±3% and 91±1%.

Take `CC(N)Cc1cccc(C(F)(F)F)c1` (single isomer, unassigned; (+)) [(+)-Norfenfluramine]: the “Emax [3H]5-HT release, 15 μM EG-1-149” value stood at 81 ± 3 %I at SERT [1] (release time 5 min); 81±3 %I on SERT [1] (release time 5 min, listed as (+)-norfenfluramine); 97 ± 4 %I at SERT [1] (release time 15 min); 97±4 %I at SERT [1] (release time 15 min, listed as (+)-norfenfluramine). The “Emax [3H]5-HT release, NO EG-1-149” value at SERT [1] (release time 5 min) stood at 114 ± 8 %I; at SERT [1] (release time 15 min), 111 ± 5 %I. The “EMAX substrate-induced” value on SERT [1] is listed as 113±6%.

The values above are taken from publication PMC2941209 (Synapse (New York, N.Y.), 2010).
